Test results taken from article PMC8728392, “Synthesis, Anticancer Assessment, and Molecular Docking of Novel Chalcone-Thienopyrimidine Derivatives in HepG2 and MCF-7 Cell Lines” (Oxidative Medicine and Cellular Longevity, 2021).

Assays:
[1] = system: human breast cancer cell line (MCF-7); assay: MTT assay, cytotoxicity; type: cell-based; conditions: MCF-7, 24 hours
Description: (§1) Cancer cell lines were manipulated according to the method described by Sigounas et al.. In this method, the cell lines were grown as adherent monolayers in T75 flasks with Dulbecco's modified Eagle's medium (DMEM) supplemented with 10% Fetal Bovine Serum (FBS), 2 mM L-glutamine, and 1% streptomycin/penicillin. The cells were left to grow in a CO2 incubator at 37°C, 5% CO2, and 95% humidity until their confluence.
(§2) The 3-[4,5-dimethylthiazol-2-yl]-2,5-diphenyltetrazolium bromide (MTT) colorimetric assay was used to examine the sensitivity of cells to tested compounds (as anticancer drugs), as previously described. This assay depends on the production of a purple formazan derivative from the yellow tetrazolium bromide (MTT) by mitochondrial succinate dehydrogenase in viable cells. The percentage of cell survival was calculated as follows: (1) Percentage of survival=O.D.treated cells/O.D.control cells×100.
(§3) For preliminary screening of the cytotoxicity of synthesized compounds 3a-g, cells exposed to DMSO were used as a control. Plotting the relationship between the survival score and the compound concentration and calculating the IC50 (the concentration required to inhibit cell viability by 50%) were performed for each test compound according to Li et al. in comparison with the reference standard anticancer agent, 5-FU.
(§4) The 3-[4,5-dimethylthiazol-2-yl]-2,5-diphenyltetrazolium bromide (MTT) colorimetric assay was used to examine the sensitivity of cells to tested compounds (as anticancer drugs), as previously described by Hussein et al. (2017). This assay depend on the production of a purple formazan derivative from the yellow tetrazolium bromide (MTT) by mitochondrial succinate dehydrogenase in viable cells. Briefly, after harvesting the cells with 0.25% trypsin, the cell lines were suspended in DMEM. Cells were seeded in 96-well microtiter plates at a concentration of 5×10^4 cell/well in a fresh medium and left to attach to the plates for 24 h before treatment with the tested compounds 3a-g. Test compounds were dissolved in dimethyl sulfoxide (DMSO). After 24 hours, cells were incubated with the appropriate concentration ranges of compounds, the wells were diluted to […] with fresh medium and incubation was continued for 24 hours. Three wells were used for each concentration. After 24 hours of treatment, 20 μl of MTT solution (5mg/ml) was added and subsequently the plates were further incubated for 4 hours to allow the viable cells to biotransform the yellow-colored MTT into purple formazan crystals. The optical density (O.D.) of each well was measured spectrophotometrically at […] with an enzyme-linked immunosorbent assay (ELISA) microplate reader (BioTek, EL-800, USA). The percentage of cell survival was calculated as follows: […]

[2] = system: human liver cancer cell line (HepG2); assay: MTT assay, cytotoxicity; type: cell-based; conditions: HepG2, 24 hours
Description: as §1, §2, §3, §4

HepG2 cell line = assay: Cell cycle analysis (PI, flow cytometry); type: cell-based, human
Description: Cell cycle analysis was performed to decide if the newly synthesized thienopyrimidine derivatives arrested the cell cycle and at what phase of the cell cycle, the HepG2 and MCF-7 cell lines were arrested. The experiments were performed as previously described by Tolba et al.. HepG2 and MCF-7 cell lines were seeded and incubated with the tested compounds in 6-well plates. After incubation overnight, the cells were washed twice with ice-cold phosphate-buffered saline (PBS), detached by EDTA-trypsinization from the plates, harvested by centrifugation, fixed in ice-cold 70% (v/v) ethanol, and washed with phosphate-buffered saline (PBS, pH 7.2 ± 0.2). The cells were resuspended with 0.1 mg/ml RNase, stained with […] propidium iodide (PI), and analyzed by flow cytometry using a FACSCalibur flow cytometer (BD Biosciences, San Jose, CA). CellQuest software (Becton Dickinson) was used to determine the cell cycle distributions after incubation with 5-FU or tested compounds. Exposure of HepG2 and MCF-7 cell lines to these compounds could interfere with the normal cell cycle distribution.

[3] = system: Bax, Bcl-2, caspase-3, and caspase-9 in HepG2; assay: RT-PCR relative expression of apoptosis markers; type: cell-based, human; conditions: IC50, 8-hour incubation, vs control
Text: We determined the effect of IC50 concentration of newly synthesized thienopyrimidine derivatives (3a-e and 3g and 3b and 3g) on the relative expression levels of some markers of apoptosis in HepG2 and MCF-7 cell lines, respectively. These included the antiapoptotic marker Bcl-2 as well as the apoptotic markers Bax, caspase-3, and caspase-9 [33]. BIORAD iScript™ One-Step RT-PCR kit with SYBR® Green was used to assess the relative levels of expression of apoptosis markers. The measurement was carried out according to the technique of reverse transcription polymerase chain reaction (RT-PCR) using the Rotor-Gene RT-PCR system, and the method of the used kit was done based on the manufacturer's instructions. The procedure of this assay included the following:
Based on the manufacturer's instructions, the Qiagen RNeasy Extraction Kit (Qiagen Ltd., UK) was used to isolate mRNA from approximately 1 × 10^7 cells according to the cell line.
Mix all the following reagents to get the total volume (50 μl): 2X SYBR® Green RTPCR reaction mixture (25 μl), forward primer […] (1.5 μl), reverse primer […] (1.5 μl), nuclease-free water (11 μl), RNA template (1 pg-100 ng total RNA) (10 μl), and iScript reverse transcriptase (1 μl) for One-Step RT-PCR.
The thermal cycler (Rotor-Gene) program used was as follows: one cycle for reverse transcription at 50°C for 10 minutes and one cycle for RT inactivation/Hot-start activation at 95°C for 5 minutes and then 45 cycles for qPCR (10 s at 95°C, 30 seconds for annealing at 55°C, and 30 seconds for extension at 72°C), and this is followed by the final extension (one cycle) at 72°C for 10 minutes.

Row | Molecule | survival percentage (mean ± SEM) ([1]; 4.8828125 μg/ml) | survival percentage (mean ± SEM) ([1]; 9.765625 μg/ml) | survival percentage (mean ± SEM) ([1]; 19.53125 μg/ml) | survival percentage (mean ± SEM) ([1]; 39.0625 μg/ml) | survival percentage (mean ± SEM) ([1]; 78.125 μg/ml) | survival percentage (mean ± SEM) ([1]; 156.25 μg/ml) | survival percentage (mean ± SEM) ([1]; 312.5 μg/ml) | survival percentage (mean ± SEM) ([1]; 625 μg/ml) | survival percentage (mean ± SEM) ([1]; 1250 μg/ml) | survival percentage (mean ± SEM) ([1]; 2500 μg/ml) | survival percentage (mean ± SEM) ([1]; 5000 μg/ml) | survival percentage (mean ± SEM) ([1]; 10000 μg/ml) | survival percentage (mean ± SEM) ([2]; 4.8828125 μg/ml) | survival percentage (mean ± SEM) ([2]; 9.765625 μg/ml) | survival percentage (mean ± SEM) ([2]; 19.53125 μg/ml) | survival percentage (mean ± SEM) ([2]; 39.0625 μg/ml) | survival percentage (mean ± SEM) ([2]; 78.125 μg/ml) | survival percentage (mean ± SEM) ([2]; 156.25 μg/ml) | survival percentage (mean ± SEM) ([2]; 312.5 μg/ml) | survival percentage (mean ± SEM) ([2]; 625 μg/ml) | further results
1 | CCOC(=O)N1CCc2c(sc3nc(SCC(=O)Nc4ccc(C(=O)/C=C\c5cc(OC)c(OC)c(OC)c5)cc4)[nH]c(=O)c23)C1 [Compound 3e, Ethyl (Z)-4-Oxo-2-((2-oxo-2-((4-(3-(3,4,5-trimethoxyphenyl)acryloyl)phenyl)amino)ethyl)-thio)-3,5,6,8-tetrahydropyrido[4′,3′:4,5]thieno[2,3-d]pyrimidine-7(4H)-carboxylate] | 147.1 ± 0.051% | 131.6 ± 0.132% | 123.4 ± 0.070% | 129.1 ± 0.033% | 109.2 ± 0.084% | 104.2 ± 0.026% | 61.5 ± 0.112% | 38.0 ± 0.030% | 27.8 ± 0.021% | 17.9 ± 0.002% | 16.0 ± 0.000% | 15.9 ± 0.002% | 127.5 ± 0.033% | 114.3 ± 0.141% | 91.9 ± 0.060% | 45.1 ± 0.072% | 21.4 ± 0.073% | 21.1± 0.012% | 19.8 ± 0.005% | 18.9 ± 0.001% | survival percentage (mean ± SEM) ([2]; 1250 μg/ml): 18.4 ± 0.003%; survival percentage (mean ± SEM) ([2]; 2500 μg/ml): 17.4 ± 0.002%; survival percentage (mean ± SEM) ([2]; 5000 μg/ml): 16.8 ± 0.003%; survival percentage (mean ± SEM) ([2]; 10000 μg/ml): 14.1 ± 0.002%; cell population in G2/M compared with control cells (HepG2 cell line): substantial increase; cell population in pre-G1 phases compared with control cells (HepG2 cell line): significant increase; melting point: 167 to 168 °C
2 | Ethyl (Z)-2-(Ethoxymethyl)-4-oxo-3-(2-oxo-2-((4-(3-(2,3,4-trimethoxyphenyl)acryloyl)-phenyl)amino)ethyl)-3,5,6,8-tetrahydropyrido[4′,3′:4,5]thieno[2,3-d]pyrimidine-7(4H)-carboxylate [Compound 3d] | 133.8 ± 0.227% | 146.0 ± 0.065% | 133.2 ± 0.116% | 132.7 ± 0.231% | 113.1 ± 0.171% | 103.1 ± 0.202% | 35.3 ± 0.044% | 26.5 ± 0.120% | 8.5 ± 0.006% | 6.2 ± 0.005% | 6.12 ± 0.003% | 5.8 ± 0.001% | 123.0 ± 0.026% | 111.0 ± 0.041% | 99.2 ± 0.026% | 91.2 ± 0.138% | 31.0 ± 0.017% | 20.5 ± 0.002% | 20.5 ± 0.002% | 20.0 ± 0.001% | expression levels of Bcl-2 [3]: noticeably decreased; survival percentage (mean ± SEM) ([2]; 1250 μg/ml): 19.5 ± 0.001%; survival percentage (mean ± SEM) ([2]; 2500 μg/ml): 19.4 ± 0.004%; survival percentage (mean ± SEM) ([2]; 5000 μg/ml): 18.5 ± 0.003%; survival percentage (mean ± SEM) ([2]; 10000 μg/ml): 18.4 ± 0.002%; S phase cell population (HepG2 cell line): significant (P < 0.05) increase; cell population in pre-G1 phases compared with control cells (HepG2 cell line): significant increase
